Measured values published in ChEMBL document CHEMBL4811260, “Isolation, synthesis and absolute configuration of 4,5-dihydroxypiperines improving behavioral disorder in AlCl3-induced dementia” (2021).
Activity calls are given as the source filed them. No cut-off for these calls is given here.

Columns and labels:
Danio rerio [1] = species on record: Danio rerio; assay: Antialzheimer activity against AlCl3-induced dementia zebrafish model assessed as increase in dyskinesia recovery rate at 10 uM measured for 60 mins under alternating light and dark environment in presence of 150 uM of AlCl3 relative to control; assay type: functional
Danio rerio [2] = species on record: Danio rerio; assay: Antialzheimer activity against AlCl3-induced dementia zebrafish model assessed as increase in response efficiency at 10 uM measured for 60 mins under alternating light and dark environment in presence of 150 uM of AlCl3 relative to control; assay type: functional
Danio rerio [3] = species on record: Danio rerio; assay: Antialzheimer activity against AlCl3-induced dementia zebrafish model assessed as increase in zebrafish movement speed at 10 uM measured for 60 mins under alternating light and dark environment in presence of 150 uM of AlCl3; assay type: functional, organism-based
Danio rerio [4] = species on record: Danio rerio; assay: Antialzheimer activity against AlCl3-induced dementia zebrafish model assessed as increase in zebrafish movement speed change at 10 uM measured for 60 mins under alternating light and dark environment in presence of 150 uM of AlCl3; assay type: functional, organism-based

| SMILES | Activity (Danio rerio [1]) | Activity (Danio rerio [2]) | Activity (Danio rerio [3]) | Activity (Danio rerio [4]) | Activity (Danio rerio [1]; 1 h) | Activity (Danio rerio [2]; 1 h) |
| --- | --- | --- | --- | --- | --- | --- |
| O=C(/C=C/[C@@H](O)[C@H](O)c1ccc2c(c1)OCO2)N1CCCCC1 | inactive | inactive | – | – | – | – |
| O=C(/C=C/[C@H](O)[C@@H](O)c1ccc2c(c1)OCO2)N1CCCCC1 | inactive | inactive | – | – | – | – |
| O=C(/C=C/[C@@H](O)[C@@H](O)c1ccc2c(c1)OCO2)N1CCCCC1 | – | – | Active | Active | 73.8% | 85.4% |
| O=C(/C=C/[C@H](O)[C@H](O)c1ccc2c(c1)OCO2)N1CCCCC1 | inactive | inactive | – | – | – | – |
